From US20060183119A1, “Method for determining predisposition to a physiological reaction in a patient” (UNIVERSITE LAVAL, priority 2002, published 2006)
Values joined by “and” are separate entries in the source; they are usually repeats but may differ in a detail not shown here. Equal entries are not always repeated. Where two headings read alike, the source gives them in different places.

Assays:
human liver microsomes = experiment: SN-38 glucuronide formation by human liver microsome samples of patients; format: in vitro ADME; conditions: N 48
Source text: To obtain statistical data on interindividual variation of SN-38 glucuronidation, we measured the SN-38-G formation, as currently known in the background art, with microsomes preparations from each patient liver sample. The glucuronide formation rates were regrouped into ranges and every sample was categorized within these ranges.

human UGT1A9*1 = biological target: T1, human UGT1A9*1 (Homo sapiens, UniProt O60656); conditions: SN-38 glucuronidation
T1 sequence (O60656 26-530): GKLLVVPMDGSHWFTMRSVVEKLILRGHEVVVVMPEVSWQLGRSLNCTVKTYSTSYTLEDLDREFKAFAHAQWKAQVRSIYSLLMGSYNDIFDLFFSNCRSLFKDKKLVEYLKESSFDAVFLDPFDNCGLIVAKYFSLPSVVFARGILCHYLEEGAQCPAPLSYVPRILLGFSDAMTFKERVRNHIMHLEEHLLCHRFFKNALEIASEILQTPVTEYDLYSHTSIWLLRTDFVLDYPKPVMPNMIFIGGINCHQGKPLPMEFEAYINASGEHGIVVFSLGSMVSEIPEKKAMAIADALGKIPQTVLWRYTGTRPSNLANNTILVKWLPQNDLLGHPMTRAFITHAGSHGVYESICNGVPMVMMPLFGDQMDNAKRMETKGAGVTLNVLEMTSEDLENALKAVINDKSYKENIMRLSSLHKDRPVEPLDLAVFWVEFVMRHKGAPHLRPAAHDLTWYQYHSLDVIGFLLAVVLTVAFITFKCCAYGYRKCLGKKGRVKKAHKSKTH
Method: (§1) Microsomal fractions from HEK-293 cells stably expressing human UGT1A9*1, UGT1A9*2 and UGT1A9*3 were used in enzymatic assays. Reactions (100 μl volume) contained 50 mM Tris-HCl, pH 7.3, 10 mM MgCl2, 100 μg/mL phosphatidylcholine, 1 mM UDP-glucuronic acid, 40 to 60 μg of membrane protein. […] Human liver microsome were incubated in the same condition for control. Reaction was stopped by the addition of 200 μL MeOH+1% HCl 2N, followed by centrifugation at 14000 rpm for 10 minutes. Supernatant was filtered through a 0.22 μm filter and 100 μL of water was added. For SN-38 and SN-38-glucuronide detection, 10 μL samples were injected on a liquid chromatographic system coupled to a fluorescence detector. Time-course experiments were realized to determine the linearity of the glucuronidation reaction.
(§2) A liquid chromatographic method was developed to quantify SN-38 glucuronidation of UGT cell line-derived microsomes and human liver microsomes. Samples were analyzed using high performance liquid chromatography (Alliance 2695, Waters, Milford, Mass.). […] At a constant flow rate (0.7 ml/min), a linear gradient from 20 to 65% B was run over 3 min, held 0.8 min and a second gradient until 95% of B was run over 2 min and then re-equilibrated to 20% B over 2 min. The effluent from the HPLC system (Alliance 2695) was connected directly to a fluorescence detector (Waters, Milford, Mass.) using an excitation wavelength of […] and an emission of 460 nm. […] Determination of the glucuronidation rates obtained with other substrates was performed as currently known in the art.
Microsomal fractions from HEK293 (40 to 60 μg) were added to a reaction mixture (100 μL) containing 50 mM Tris-HCl, pH 7.3, 10 mM MgCl2, 100 μg/mL phosphatidylcholine and 2 mM UDP-glucuronic acid. […] Commercially available human liver microsomes (Human Cell Culture Center Inc., Laurel, Md.) were incubated in the same conditions for all experiments. Time-course experiments were performed to determine the linearity of the glucuronidation reaction. For the determination of Vmax and Km. HEK293 cells stably expressing UGT1A9 enzymes were incubated in the presence of various concentrations of SN-38 ranging from 0.1 to 200 μM and incubated for 30 min as described above whereas UGT1A7 membranes preparations were incubated for 3 hours. […] For the detection of SN-38 and its glucuronide (SN-38G), 10 μL samples were injected in a liquid chromatographic system (HPLC) coupled to fluorescence detector as described below.
A HPLC method was developed to quantify the rates of SN-38 glucuronidation from the various microsomal fractions under study. […] The column was connected to a fluorescence detector model 474 (Waters, Milford, Mass.) and the molecules were excited at a wavelength of 370 nm and an emission of 425 nm.

human UGT1A9*2 = biological target: T2, human UGT1A9*2 (Homo sapiens, UniProt O60656, C3Y); experiment: Glucuronidation by microsomes of HEK-293 cells stably expressing UGT1A9*2; conditions: for Vmax / Km: SN-38 glucuronidation
T2 sequence (O60656 26-530): T1 sequence (O60656 26-530)
Method: as §1, §2
Microsomal fractions from HEK293 (40 to 60 μg) were added to a reaction mixture (100 μL) containing 50 mM Tris-HCl, pH 7.3, 10 mM MgCl2, 100 μg/mL phosphatidylcholine and 2 mM UDP-glucuronic acid. […] Commercially available human liver microsomes (Human Cell Culture Center Inc., Laurel, Md.) were incubated in the same conditions for all experiments. Time-course experiments were performed to determine the linearity of the glucuronidation reaction. For the determination of Vmax and Km. HEK293 cells stably expressing UGT1A9 enzymes were incubated in the presence of various concentrations of SN-38 ranging from 0.1 to 200 μM and incubated for 30 min as described above whereas UGT1A7 membranes preparations were incubated for 3 hours. […] Reactions with SN-38 were stopped by the addition of 200 μL MeOH+1% HCl 2N, followed by centrifugation at 14000×g for 10 minutes. The supernatants were filtered through a 0.22 μm membrane and 100 μL of water was added to the filtrate. For the detection of SN-38 and its glucuronide (SN-38G), 10 μL samples were injected in a liquid chromatographic system (HPLC) coupled to fluorescence detector as described below.
A HPLC method was developed to quantify the rates of SN-38 glucuronidation from the various microsomal fractions under study. The HPLC system used was an Alliance 2695 (Waters, Milford, Mass.) equipped with a 50×3.2 mm Colombus C18 column (Phenomenex, Torrance, Calif.). […] Then a second gradient ranging from 65% to 95% solvent B was generated during the following 2 min. Finally, the column was re-equilibrated to 20% solvent B for 2 min. The column was connected to a fluorescence detector model 474 (Waters, Milford, Mass.) and the molecules were excited at a wavelength of 370 nm and an emission of 425 nm.

[1] = read-out: Apparent Km, 0.1 to 200 μM, mean±SD, Lineweaver-Burk

## CCc1c2c(nc3ccc(O)cc13)-c1cc3c(c(=O)n1C2)COC(=O)[C@]3(O)CC [SN-38, 7-ethyl-10-hydroxycamptothecin]
Human liver microsomes
  SN-38 glucuronide formation, glucuronidation rate, Mean: 0.61 pmol/mg of protein/minute and 0.6118 pmol/mg of protein/minute
  SN-38 glucuronide formation, quantile 0.0% minimum: 0.1063 pmol/mg of protein/minute
  SN-38 glucuronide formation, quantile 0.5%: 0.1063 pmol/mg of protein/minute
  SN-38 glucuronide formation, quantile 2.5%: 0.1113 pmol/mg of protein/minute
  SN-38 glucuronide formation, quantile 10.0%: 0.1641 pmol/mg of protein/minute
  SN-38 glucuronide formation, quantile 25.0% quartile: 0.2763 pmol/mg of protein/minute
  SN-38 glucuronide formation, quantile 50.0% median: 0.4204 pmol/mg of protein/minute
  SN-38 glucuronide formation, quantile 75.0% quartile: 0.9279 pmol/mg of protein/minute
  SN-38 glucuronide formation, quantile 90.0%: 1.5699 pmol/mg of protein/minute
  SN-38 glucuronide formation, quantile 97.5%: 1.9309 pmol/mg of protein/minute
  SN-38 glucuronide formation, quantile 99.5%: 1.9735 pmol/mg of protein/minute
  SN-38 glucuronide formation, quantile 100.0% maximum: 1.9735 pmol/mg of protein/minute
Human UGT1A9*1; 0.1 to 200 μM, mean±SD
  Vmax: 316.34±52.03 pmol/min/mg protein
Human UGT1A9*1; Table 5
  Km: 3.03 ± 0.72 µM
  Vmax: 316.34 ± 52.03
Human UGT1A9*1; [1]
  Km: 3.03 µM and 3.02 µM
Human UGT1A9*2; 5 μM of SN-38, versus wild type
  effect on conjugation rate of SN-38 (in words): no significant effect
Human UGT1A9*2; 0.1 to 200 μM, mean±SD
  Vmax: 324.38 ± 95.09 pmol/min/mg protein
Human UGT1A9*2; Table 5
  Km: 5.15 ± 1.81 µM
  Vmax: 324.68 ± 95.09
Human UGT1A9*2; [1]
  Km: 5.15 ± 1.81 µM
Human UGT1A9*2; tyrosine at codon 3, versus UGT1A9*1
  increased activity (SN-38 conjugation): 16.7%
